Measurements: patent US20140377216A1, “ANTICANCER FUSION PROTEIN” (ADAMED SP. Z.O.O., priority 2011, published 2014)

Key:
Format in all cases: in vivo, Crl:SHO-PrkdcscidHrhr mice
[1] = test system: human lung cancer NCI-H460-Luc2; test: Lung cancer model, Experiment C: NCI-H460-Luc2 xenograft; conditions: 20 mg/kg i.v. 6 times every second day, 29 day
Protocol: (§1) Tumor size was measured using electronic calliper, tumor volume was calculated using the formula: (a^2×b)/2, where a=shorter diagonal of the tumor (mm) and b=longer diagonal of the tumor (mm). Inhibition of tumor growth was calculated using the formula:
(§2) TGI[%](Tumor growth inhibition)=(WT/WC)×100−100%
(§3) wherein WT is the average tumor volume in the treatment group, and WC is the average tumor volume in the control group.
On day 0 Crl:SHO-Prkdc^scidHr^hr mice were grafted subcutaneously (s.c.) in the right side with 5×10^6 of NCI-H460-Luc2 cells suspended in 0.1 ml of HBSS buffer using syringe with a needle 0.5×25 mm (Bogmark). On the 11 day of the experiment mice were randomized to obtain the average size of tumors in the group of ˜100-120 mm^3 and assigned to treatment groups. The treatment groups were administered with the preparations of fusion protein of the invention of Ex. 11^a (40 mg/kg and 30 mg/kg), and rhTRAIL114-281 (20 mg/kg) as a comparison against formulation buffer (19 mM NaH2PO4, 81 mM Na2HPO4, 50 mM NaCl, 5 mM glutathione, 0.1 mM ZnCl2, 10% glycerol, pH 7.4) as a control. The preparations were administered intravenously (i.v) 6 times once daily every second day (in case of fusion protein of the invention of Ex. 11^a first administration at a dose 40 mg/kg and subsequent at 30 mg/kg. On the 29 day of the experiment mice were sacrificed by disruption of the spinal cord.

[2] = test system: multidrug resistant human uterine sarcoma MES-SA/Dx5; test: Multidrug resistant uterine sarcoma model: MES-SA/Dx5 xenograft; conditions: 10 mg/kg i.v. 6 times every second day, 35 day
Protocol: as §1, §2, §3
On day 0 Crl:SHO-Prkdc^scidHr^hr mice were grafted subcutaneously (s.c.) in the right side with 7×10^6 of MES-SA/Dx5 cells suspended in 0.1 ml of the mixture HBSS:Matrigel 10:1 using syringe with a needle 0.5×25 mm (Bogmark). On the 19 day of the experiment mice were randomized to obtain the average size of tumors in the group of −180 mm^3 and assigned to treatment groups. The treatment groups were administered with the preparation of fusion protein of the invention of Ex. 11^a (30 mg/kg) and rhTRAIL114-281 (10 mg/kg) as a comparison against formulation buffer (19 mM NaH2PO4, 81 mM Na2HPO4, 50 mM NaCl, 5 mM glutathione, 0.1 mM ZnCl2, 10% glycerol, pH 7.4) as a control. Preparations were administered intravenously (i.v.) 6 times once daily every second day. On the 35 day of the experiment mice were sacrificed by disruption of spinal cord.

[3] = test system: pancreatic carcinoma MIA PaCa-2; test: Pancreas cancer model, Experiment B: MIA PaCa-2 xenograft; conditions: rhTRAIL 50 mg/kg i.v. six times every second day, 61th day
Protocol: as §1, §2, §3
On day 0 Crl:SHO-Prkdc^scidHr^hr mice were grafted subcutaneously (s.c.) in the right flank region with 5×10^6 of MIA PaCa-2 cells suspended in 0.1 ml of 3:1 mixture HBSS buffer:Matrigel using syringe with a 0.5×25 mm needle (Bogmark). When tumors reached the size of 60-398 mm^3 (day 20), mice were randomized to obtain the average size of tumors in the group of ˜170 mm^3 and assigned to treatment groups. The treatment groups were administered with the preparations of fusion protein of the invention of Ex. 16^b (50 mg/kg) and rhTRAIL114-281 (50 mg/kg) as a comparison and reference compound gemcytabine (Gemzar, Eli Lilly) (50 mg/kg). The preparations were administered intravenously (i.v.) six times every second day, gemcytabine was applied intraperitoneally (i.p.) in the same schedule. The control group received formulation buffer.
When a therapeutic group reached the average tumor size of ˜1000 mm^3, mice were sacrificed by the cervical dislocation.

[4] = test system: human colon cancer Colo205; test: Colon cancer model, Experiment C: Colo205 xenograft; conditions: rhTRAIL 30 mg/kg i.v. 6 times every second day, 33 day
Protocol: as §1, §2, §3
On day 0 Crl:SHO-Prkdc^scidHr^hr mice were grafted subcutaneously (s.c.) in the right side with 5×10^6 of Colo205 cells suspended in 0.1 ml of HBSS buffer using syringe with a needle 0.5×25 mm (Bogmark). On the 13 day of the experiment mice were randomized to obtain the average size of tumors in the group of ˜115 mm^3 and assigned to treatment groups.
The treatment groups were administered with the preparations of fusion protein of the invention of Ex. 16^a (30 mg/kg), and rhTRAIL114-281 (30 mg/kg) as a comparison against formulation buffer (19 mM NaH2PO4, 81 mM Na2HPO4, 50 mM NaCl, 5 mM glutathione, 0.1 mM ZnCl2, 10% glycerol, pH 7.4) as a control. The preparations were administered intravenously (i.v) 6 times once daily every second day. On the 33 day of the experiment mice were sacrificed by disruption of spinal cord.

human lung cancer A549 = test: Lung cancer model, Experiment B: A549 xenograft; conditions: A549, Crl:SHO mice; 20 mg/kg i.v. 6 times every second day; 34 day
Protocol: as §1, §2, §3
Experiment B. On day 0 Crl:SHO-Prkdc^scidHr^h mice were grafted subcutaneously (s.c.) in the right side with 7×10^6 of A549 cells suspended in 0.1 ml of the mixture HBSS:Matrigel 3:1 using syringe with a needle 0.5×25 mm (Bogmark). On the 17 day of the experiment mice were randomized to obtain the average size of tumors in the group of ˜100-120 mm^3 and assigned to treatment groups. The treatment groups were administered with the preparations of fusion protein of the invention of Ex. 11^a (40 mg/kg), and rhTRAIL114-281 (20 mg/kg) as a comparison against formulation buffer (19 mM NaH2PO4, 81 mM Na2HPO4, 50 mM NaCl, 5 mM glutathione, 0.1 mM ZnCl2, 10% glycerol, pH 7.4) as a control. The preparations were administered intravenously (i.v) 6 times once daily every second day. On the 34 day of the experiment mice were sacrificed by disruption of the spinal cord.

rhTRAIL114-281: recombinant human soluble TRAIL, amino acids 114-281 of hTRAIL, used as comparative reference
TGI (tumor growth inhibition) relative to the control [1]: 76% | TGI (tumor growth inhibition) relative to the control [2]: 29% | TGI (tumor growth inhibition) relative to the control [3]: 68% | TGI (tumor growth inhibition) relative to the control [4]: 18.8% | TGI (tumor growth inhibition) relative to the control (human lung cancer A549): 21.8%
